Results as given in the supplement of paper PMC8671470.

Experiments:
Experiment in all cases: cell viability (% survival relative to DMSO control); higher = less cytotoxic
Conditions in all cases: 72 h
[1] = test system: myeloid leukemia patient primary cells Pat.12
Method in brief: (§1)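 Thawed, Ficoll-purified mononuclear cells from AML or CML patients in RPMI 1640 with 10% FBS were seeded at 10,000 cells/well on 384-well plates pre-printed with 70 compounds at five tenfold concentrations, 1–10,000 nM, in duplicate, for 72 h. Viability was read by CellTiter-Glo and normalised to DMSO and 10 μM proteasome-inhibitor wells. Where given, area under the curve came from four-parameter log-logistic fits (drc, PharmacoGx R packages).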

[2] = test system: myeloid leukemia patient primary cells Pat.5
Method in brief: as §1

[3] = test system: myeloid leukemia patient primary cells Pat.9
Method in brief: as §1

[4] = test system: myeloid leukemia patient primary cells Pat.13
Method in brief: as §1

[5] = test system: myeloid leukemia patient primary cells Pat.1
Method in brief: as §1

[6] = test system: myeloid leukemia patient primary cells Pat.4
Method in brief: as §1

[7] = test system: myeloid leukemia patient primary cells Pat.8
Method in brief: as §1

[8] = test system: myeloid leukemia patient primary cells Pat.3
Method in brief: as §1

[9] = test system: myeloid leukemia patient primary cells Pat.14
Method in brief: as §1

## CO[C@H]1C[C@@H]2CC[C@@H](C)[C@@](O)(O2)C(=O)C(=O)N2CCCC[C@H]2C(=O)O[C@H]([C@H](C)C[C@@H]2CC[C@@H](OC(=O)C(C)(CO)CO)[C@H](OC)C2)CC(=O)[C@H](C)/C=C(\C)[C@@H](O)[C@@H](OC)C(=O)[C@H](C)C[C@H](C)/C=C/C=C/C=C/1C [Temsirolimus]
[1]; 1 nM
  cell viability: 95.8%
[1]; 10 nM
  cell viability: 98.4%
[1]; 100 nM
  cell viability: 93.6%
[1]; 1000 nM
  cell viability: 90.6%
[1]; 10000 nM
  cell viability: 96.4%
[2]; 1 nM
  cell viability: 46.4%
[2]; 10 nM
  cell viability: 11.5%
[2]; 100 nM
  cell viability: 3.45%
[2]; 1000 nM
  cell viability: 58.7%
[2]; 10000 nM
  cell viability: 0.265%
[3]; 1 nM
  cell viability: 78.2%
[3]; 10 nM
  cell viability: 48.1%
[3]; 100 nM
  cell viability: 25.1%
[3]; 1000 nM
  cell viability: 49.6%
[3]; 10000 nM
  cell viability: < 0%
[4]; 1 nM
  cell viability: 74.5%
[4]; 10 nM
  cell viability: 65.6%
[4]; 100 nM
  cell viability: 61.8%
[4]; 1000 nM
  cell viability: 92%
[4]; 10000 nM
  cell viability: 55.3%
[5]; 1 nM
  cell viability: 89.3%
[5]; 10 nM
  cell viability: 47.4%
[5]; 100 nM
  cell viability: 52.9%
[5]; 1000 nM
  cell viability: 70.1%
[5]; 10000 nM
  cell viability: 51.8%
[6]; 1 nM
  cell viability: 75.1%
[6]; 10 nM
  cell viability: 50.9%
[6]; 100 nM
  cell viability: 53.1%
[6]; 1000 nM
  cell viability: 59%
[6]; 10000 nM
  cell viability: 24.4%
[7]; 1 nM
  cell viability: 83.3%
[7]; 10 nM
  cell viability: 55.6%
[7]; 100 nM
  cell viability: 78.2%
[7]; 1000 nM
  cell viability: 88.4%
[7]; 10000 nM
  cell viability: 55.5%
[8]; 1 nM
  cell viability: 97.6%
[8]; 10 nM
  cell viability: 86.7%
[8]; 100 nM
  cell viability: 77.1%
[8]; 1000 nM
  cell viability: 95.1%
[8]; 10000 nM
  cell viability: < 0%
[9]; 1 nM
  cell viability: 73.7%
[9]; 10 nM
  cell viability: 58.7%
[9]; 100 nM
  cell viability: 48.6%
[9]; 1000 nM
  cell viability: 71.6%
[9]; 10000 nM
  cell viability: 5.69%

## CN1CCN(CCCN2c3ccccc3Sc3ccc(C(F)(F)F)cc32)CC1 [Trifluoperazine]
[1]; 1 nM
  cell viability: 95.7%
[1]; 10 nM
  cell viability: 89.5%
[1]; 100 nM
  cell viability: 95.9%
[1]; 1000 nM
  cell viability: 87%
[1]; 10000 nM
  cell viability: 38.3%
[2]; 1 nM
  cell viability: 99.9%
[2]; 10 nM
  cell viability: 49.2%
[2]; 100 nM
  cell viability: 88%
[2]; 1000 nM
  cell viability: 0.912%
[2]; 10000 nM
  cell viability: 3.33%
[3]; 1 nM
  cell viability: 79.5%
[3]; 10 nM
  cell viability: 52.7%
[3]; 100 nM
  cell viability: 65.3%
[3]; 1000 nM
  cell viability: 0.773%
[3]; 10000 nM
  cell viability: 1.6%
[4]; 1 nM
  cell viability: 90.5%
[4]; 10 nM
  cell viability: 90.8%
[4]; 100 nM
  cell viability: 99.3%
[4]; 1000 nM
  cell viability: 56.4%
[4]; 10000 nM
  cell viability: 39.1%
[5]; 1 nM
  cell viability: 97.8%
[5]; 10 nM
  cell viability: 93.7%
[5]; 100 nM
  cell viability: 94.1%
[5]; 1000 nM
  cell viability: 56%
[5]; 10000 nM
  cell viability: 19.4%
[6]; 1 nM
  cell viability: 84.5%
[6]; 10 nM
  cell viability: 98.7%
[6]; 100 nM
  cell viability: 97.6%
[6]; 1000 nM
  cell viability: 75.1%
[6]; 10000 nM
  cell viability: 15.8%
[7]; 1 nM
  cell viability: 80%
[7]; 10 nM
  cell viability: 88.9%
[7]; 100 nM
  cell viability: 91.3%
[7]; 1000 nM
  cell viability: 69.8%
[7]; 10000 nM
  cell viability: 41.6%
[8]; 1 nM
  cell viability: 99.7%
[8]; 10 nM
  cell viability: 80.7%
[8]; 100 nM
  cell viability: 65.1%
[8]; 1000 nM
  cell viability: 11.8%
[8]; 10000 nM
  cell viability: 0.738%
[9]; 1 nM
  cell viability: 89.2%
[9]; 10 nM
  cell viability: 85.5%
[9]; 100 nM
  cell viability: 86.6%
[9]; 1000 nM
  cell viability: 26.5%
[9]; 10000 nM
  cell viability: 1.65%

## Cn1cc(-c2ccncc2)c(-c2ccc(OCc3ccc4ccccc4n3)cc2)n1
[1]; 1 nM
  cell viability: 98.4%
[1]; 10 nM
  cell viability: 97%
[1]; 100 nM
  cell viability: > 100%
[1]; 1000 nM
  cell viability: 82.3%
[1]; 10000 nM
  cell viability: 87.9%
[2]; 1 nM
  cell viability: 26.3%
[2]; 10 nM
  cell viability: 1.33%
[2]; 100 nM
  cell viability: 18%
[2]; 1000 nM
  cell viability: 0.265%
[2]; 10000 nM
  cell viability: < 0%
[3]; 1 nM
  cell viability: 62.4%
[3]; 10 nM
  cell viability: 36.5%
[3]; 100 nM
  cell viability: 32.9%
[3]; 1000 nM
  cell viability: 3.45%
[3]; 10000 nM
  cell viability: 11.7%
[4]; 1 nM
  cell viability: 88.2%
[4]; 10 nM
  cell viability: 87%
[4]; 100 nM
  cell viability: 87.9%
[4]; 1000 nM
  cell viability: 70.8%
[4]; 10000 nM
  cell viability: 53.5%
[5]; 1 nM
  cell viability: 82.2%
[5]; 10 nM
  cell viability: 91.2%
[5]; 100 nM
  cell viability: 97.1%
[5]; 1000 nM
  cell viability: 73%
[5]; 10000 nM
  cell viability: 73.6%
[6]; 1 nM
  cell viability: 93.5%
[6]; 10 nM
  cell viability: 82.6%
[6]; 100 nM
  cell viability: 90.3%
[6]; 1000 nM
  cell viability: 85.4%
[6]; 10000 nM
  cell viability: 97%
[7]; 1 nM
  cell viability: 81%
[7]; 10 nM
  cell viability: 89.1%
[7]; 100 nM
  cell viability: 93.4%
[7]; 1000 nM
  cell viability: 74.4%
[7]; 10000 nM
  cell viability: 83.6%
[8]; 1 nM
  cell viability: 91.6%
[8]; 10 nM
  cell viability: 90.2%
[8]; 100 nM
  cell viability: > 100%
[8]; 1000 nM
  cell viability: 48.8%
[8]; 10000 nM
  cell viability: 29.9%
[9]; 1 nM
  cell viability: 82.6%
[9]; 10 nM
  cell viability: 86.8%
[9]; 100 nM
  cell viability: 86.7%
[9]; 1000 nM
  cell viability: 50.1%
[9]; 10000 nM
  cell viability: 43.4%
